The record followed here is PubChem BioAssay AID488950 (Broad Institute, 2010).

Where “and” joins values, the source holds several entries; their conditions need not be identical. Identical values can stand only once. Results filed as inconclusive are left out. Calls of active or inactive are those of the source.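 The calls were made as follows: active = fitted half-maximal dose for growth inhibition no higher than ten times the top tested dose; inconclusive = flat curve with 30 to 70% inhibition, or poor fit; inactive = the rest.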

One assay concerns C. albicans CaCi-8 + fluconazole, Alamar Blue growth, 48 h. Kind of assay: growth inhibition of resistant C. albicans, dose response, CaCi-8 strain, fluconazole, dry powder, set 4 (AID 488950).
Conditions: not given
As for `O=C(c1ccc(Cl)cc1)N1CCN(c2ccnc3cc(Cl)ccc23)CC1`, the AC50 (usually the concentration giving half of the maximal activity seen) was 0.179 µM and 0.6 µM.
Same read-out and setting: in the case of `O=C(c1ccc(Cl)cc1)N1CCN(c2ccccn2)CC1` it was 9.14 µM and 13.8 µM and 19.9 µM.

System in a further assay: not listed separately
The assay is described as above. As to conditions: C. albicans CaCi-8 + fluconazole, Alamar Blue growth, 48 h; at 26 µM (top of the series).
Regarding `O=C(c1ccc(Cl)cc1)N1CCN(c2cc(C(F)(F)F)nc3ccccc23)CC1`, the activity change, negative = inhibition was -54.5% (inactive).
With `O=C(c1ccc(Cl)cc1)N1CCN(c2ccncc2)CC1`, the activity change, negative = inhibition was -2.65% (inactive).
On to `O=C(c1ccc(Cl)cc1)N1CCNCC1`, for which the activity change, negative = inhibition was 4.63% (inactive).
On to `CC(C)C(=O)N1CCN(c2ccnc3cc(Cl)ccc23)CC1`, for which the activity change, negative = inhibition was -25.6% (inactive).
On the same count and under the same terms, next, `Cc1cc(N2CCN(C(=O)c3ccc(Cl)cc3)CC2)c2ccccc2n1`: 6.54% (inactive); `COc1cccc2c(N3CCN(C(=O)c4ccc(Cl)cc4)CC3)cc(C)nc12`: -22.9% (inactive).
On the same count and under the same terms, in the case of `COc1cccnc1N1CCN(C(=O)c2ccc(Cl)cc2)CC1` it was -25% (inactive).
Still for that read-out and setting: next, `Clc1ccc2c(N3CCNCC3)ccnc2c1`: 7.46% (inactive); `O=S(=O)(c1ccc(Cl)cc1)N1CCN(c2ccnc3cc(Cl)ccc23)CC1`: -2.18% (inactive).
